ChEMBL document CHEMBL1144673, “Discovery of novel alpha-glucosidase inhibitors based on the virtual screening with the homology-modeled protein structure” (Bioorg Med Chem, 2008)

What follows are compounds tested against Alpha-glucosidase MAL12 (Saccharomyces cerevisiae S288c) (UniProt P53341) (assay: Inhibition of bakers yeast alpha-glucosidase at 50 uM).
Sequence of Alpha-glucosidase MAL12 (Saccharomyces cerevisiae S288c) (P53341 whole entry): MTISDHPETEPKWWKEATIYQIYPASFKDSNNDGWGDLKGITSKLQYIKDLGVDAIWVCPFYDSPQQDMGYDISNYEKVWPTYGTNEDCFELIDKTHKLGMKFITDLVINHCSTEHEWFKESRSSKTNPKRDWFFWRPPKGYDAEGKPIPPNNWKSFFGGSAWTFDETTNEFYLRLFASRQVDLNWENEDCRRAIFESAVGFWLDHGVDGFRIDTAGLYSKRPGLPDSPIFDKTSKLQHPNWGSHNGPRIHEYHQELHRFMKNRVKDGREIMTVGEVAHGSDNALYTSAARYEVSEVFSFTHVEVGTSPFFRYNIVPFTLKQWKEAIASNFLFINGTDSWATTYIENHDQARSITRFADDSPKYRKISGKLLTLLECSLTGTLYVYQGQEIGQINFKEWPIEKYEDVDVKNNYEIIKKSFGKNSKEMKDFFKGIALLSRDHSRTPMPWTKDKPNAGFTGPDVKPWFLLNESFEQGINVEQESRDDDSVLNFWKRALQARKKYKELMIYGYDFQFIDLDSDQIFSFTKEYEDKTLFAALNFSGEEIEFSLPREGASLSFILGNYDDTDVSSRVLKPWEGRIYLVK

Row | Compound | inhibition [%]
1 | N#CC1=C(N)n2c(s/c(=C\c3ccccc3F)c2=O)=C(C(N)=O)C1c1ccccc1F (stereo not drawn) | 62.2
2 | O=C(CSc1nnc(COc2cccc3cccnc23)n1-c1ccccc1)c1ccc(Cl)cc1 | 66.5
3 | N#CC1=C(N)n2c(s/c(=C\c3ccc(O)cc3)c2=O)=C(C(N)=O)C1c1ccc(O)cc1 (stereo not drawn) | 59.2
4 | Oc1ccc(-c2nnc(Nc3cccc(O)c3)c3ccccc23)cc1 | 61.4
5 | O=C(CSc1nc2ccccc2c(=O)n1-c1ccccc1)NCc1ccccc1 | 50.9
6 | O=C(Nc1ccccc1O)c1ccc(Oc2cccc(C(=O)Nc3ccccc3O)c2)cc1 | 70.1
7 | Cn1cc(/C=C/C(=O)NC(=O)c2ccccc2O)c2ccccc21 | 71.4
8 | COc1ccc(N2C(=O)NC(=O)/C(=C\c3cn(CC(=O)Nc4ccccc4)c4ccccc34)C2=O)cc1 | 50.6
9 | O=C1NC(=O)N(c2ccccc2F)C(=O)/C1=C\c1ccccc1OCc1ccc(C(=O)O)cc1 | 54
10 | Cc1ccc(-n2c(SCC(=O)Nc3ccc(F)c(F)c3)nnc2-c2ccccc2)cc1 | 63.1
11 | Cc1ccc(/N=c2\cc(-c3ccc4c(c3)OCO4)oc3ccc(O)cc23)cc1C | 58
12 | O=C(Nc1nccs1)c1c(O)c2ccccc2n(Cc2ccccc2)c1=O | 52.3
13 | O=C(Cn1c(=O)n(CC(=O)NCc2ccccc2)c2cc(Cl)ccc21)NCc1ccccc1 | 62.4
